Laboratory results taken from PubChem BioAssay (NCI).
Several values for one entry are separate records, joined by “and”; a condition that tells them apart may be missing. Equal values may be shown once.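 A five-concentration, 48-hour dose response in 96-well plates underlies each endpoint, interpolated linearly between surrounding concentrations. GI50: concentration for 50% inhibition of growth. TGI denotes the concentration required for complete inhibition of growth.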

How the values were obtained:
Assay in all cases: DTP human tumour cell line panel, 48 h
[1] = test system: HOP-62 NSCLC
[2] = test system: TK-10 renal
[3] = test system: OVCAR-3 ovarian
[4] = test system: IGROV1 ovarian
[5] = test system: SN12K1 renal
[6] = test system: HL-60(TB) leukemia
[7] = test system: MOLT-4 leukemia
[8] = test system: HCT-15 colon
[9] = test system: RXF-631 renal
[10] = test system: DMS 114 small cell lung
[11] = test system: NCI-H226 lung
[12] = test system: M19-MEL melanoma
[13] = test system: HT29 colon
[14] = test system: DU-145 prostate
[15] = test system: SK-OV-3 ovarian
[16] = test system: NCI-H23 lung
[17] = test system: SNB-75 CNS
[18] = test system: SK-MEL-5 melanoma
[19] = test system: A549 NSCLC
[20] = test system: PC-3 prostate

O=NN(CCCl)C(=O)NCCCl was tested, and the GI50 [1] was 64.3 µM and 281 µM, the TGI [1] was 135 µM and 209 µM and > 389 µM and the GI50 [2] was 59.6 µM and > 279 µM. The TGI [2] was 144 µM and 173 µM and > 373 µM, the GI50 [3] was 63.9 µM and > 295 µM and the TGI [3] was 152 µM and 159 µM and > 372 µM. The GI50 [4] was 55.9 µM and 196 µM, the TGI [4] was 176 µM and 150 µM and > 374 µM and the TGI [5] was 127 µM. The GI50 [6] was 30.5 µM and 11.3 µM, the TGI [6] was 89.3 µM and 67.3 µM and 28.9 µM and the GI50 [7] was 39.3 µM and 110 µM. The TGI [7] was 151 µM and 161 µM and 320 µM, the GI50 [8] was 52.7 µM and 121 µM and the TGI [8] was 127 µM and 150 µM and > 267 µM. The TGI [9] was 203 µM, the TGI [10] was 142 µM and the GI50 [11] was 147 µM and 207 µM. For the same molecule, the TGI [11] was 250 µM and > 383 µM, the TGI [12] was 160 µM and the GI50 [13] was 56.4 µM and 209 µM. The TGI [13] was 133 µM and 166 µM and > 361 µM, the GI50 [14] was 95 µM and 296 µM and the TGI [14] was 250 µM and 364 µM and > 377 µM. For the same molecule, the GI50 [15] was 226 µM and > 500 µM, the TGI [15] was 250 µM and 211 µM and > 500 µM and the GI50 [16] was > 272 µM. For the same molecule, the TGI [16] was 228 µM and 182 µM and > 367 µM, the GI50 [17] was 195 µM and the TGI [17] was 127 µM and 128 µM and > 421 µM. The GI50 [18] was 95.6 µM and 362 µM, the TGI [18] was 250 µM and 161 µM and > 500 µM and the GI50 [19] was 210 µM. The TGI [19] was 250 µM and 313 µM and > 379 µM, the GI50 [20] was > 305 µM and the TGI [20] was 209 µM and > 390 µM.
